Entries after “also recorded” stand apart in the source; their conditions may differ.

Data on 4 molecules can be found in patent US8703988B2, “Self-assembled nanostructures” (Xerox Corporation, priority 2010, dated 2014).

The nature of series [1]: Gelation test (gelator ability in solvents, vial inversion). In kind it is physicochemical. The arrangement: key: I = insoluble; P = precipitate; S = solution; VS = viscous solution; G = gel; PG = partial gel. The following applies: concentration in wt % in parentheses in each cell. On the procedure: A number of characterization methods are useful for detecting and characterizing self-assembled nanostructures from alkylated derivatives of aromatic acids. The simplest test is to observe any changes in viscosity (rheology) of the liquid containing the alkylated compound relative to the neat liquid alone. […] The increase in viscosity and gelation of liquids is known to occur due to the presence and entanglement of long, 1D aggregates.
To vials with a screw cap lids (4 mL capacity) were added alkylated derivatives of aromatic acids as solids (1-100 mg) and a solvent (1 mL). The mixture was then sonicated and heated until clear solutions were obtained. After cooling and standing at room temperature for at least 30 min., the sample was inverted and inspected visually.

The nature of series [2]: Self-assembled nanostructures observed by SEM and STEM. Type of series: physicochemical. An excerpt:
Microscopy techniques such as optical light microscopy, scanning electron microscopy (SEM), transmission electron microscopy (TEM), atomic force microscopy (AFM)/scanning probe microscopy (SPM), and fluorescence microscopy are useful for determining the size and morphology of the nano (and micro) structures formed from alkylated derivatives of aromatic acids. Samples are typically prepared by depositing a drop of the liquid composition containing the nanostructures onto an appropriate sample substrate such as a carbon film coated copper mesh TEM grid, removing the excess liquid by blotting with filter paper, and then allowing to dry prior to analysis. Dynamic light scattering is also useful for detecting the presence of particles between 1 nm and 1 μm in size, measuring the size/size distribution of the dispersed particles. Rheometry is useful for determining the viscoelastic properties and thermal phase transitions for compositions of the self-assembled nanostructures. X-ray diffraction is useful for characterizing the structure of the self-assembled nanostructures size as phase identification, crystallinity, phase transitions, crystal structure refinement and determination, and size and strain broadening of crystallite nanostructures. NMR spectroscopy is useful in detecting the formation intermolecular noncovalent interactions stabilizing the nanostructures, their diffusion properties, as well as phase transitions. UV-Vis can be used for detecting the presence of nanostructures as well as confirming the presence of intermolecular pi-stacking interactions. FT-IR spectroscopy is also useful for the detection of hydrogen-bonding interactions involved in stabilizing the self-assembled nanostructures. Differential Scanning calorimetry (DSC) is another useful characterization technique, which enables the identification of thermal phase transitions within the compositions containing the nanostructures.
This example describes the self-assembled nanostructures formed from alkylated derivatives of aromatic acids deposited onto substrates observed by Scanning Electron and Scanning Transmission Electron Microscopy (SEM and STEM, respectively).
Microscopy samples are prepared by mixing the alkylated derivatives of aromatic acids as solids with a solvent, subjecting the mixture to bath sonication, and then heating to form a clear solution. The solutions are then cooled to room temperature and allowed to age for desired periods of time prior to microscopy sample preparation. After cooling, the samples may be clear solutions, turbid colloidal solutions, or more opaque dispersions. Microscopy samples are prepared for analysis by depositing a drop on thin carbon film coated copper mesh grids, allowing the drop to remain on the film for a desired period of time, followed by wicking away the excess solvent with filter paper and allowing to dry. Table 5 summarizes examples of compositions containing nanostructures of alkylated derivatives of selected aromatic acids for this invention. FIGS. 1 to 7 show Scanning Electron Microscopy and Scanning Transmission Electron Microscopy images of the nanostructures formed from alkylated derivatives of selected aromatic acids.

[3] abbreviates: solvent H2O, sonicated, heated, cooled, room temperature at least 30 min, vial inverted.
Where [4] appears, read: Toluene, 0.1 mg/mL, bundles of fibrils.
Setting [5] is: Xylenes:THF (1:1), 1.3 mg/mL, fibrils.

As to `CCCCCCCCCCCCC(CCCCCCCCCC)C(=O)Nc1cc(C(=O)O)cc(C(=O)O)c1` (stereo not shown) [compound 53, 5-(2-decyltetradecanamido)isophthalic acid], the “gelator ability (state of sample)” value in series [1] (solvent Benzene) is on record as “G (0.4)”; in series [1] (solvent CHCl3), “G (0.4)”; in series [1] (solvent Cyclohexane), “G (1.0)”; in series [1] (solvent Decalin), “G (0.5)”; in series [1] (solvent Dimethoxyethane) it was “G (0.6)”; in series [1] (solvent Dodecane), “G (1)”. Also, the “gelator ability (state of sample)” value is recorded as “PG (2.0)” in series [1] (solvent Ethylene Glycol); “I (0.1)” in series [1] (setting [3]); “G (1)” in series [1] (solvent Hexadecane); “P (0.2),” in series [1] (solvent Hexanes); “S (0.1)” in series [1] (solvent MeOH); “G (1.0)” in series [1] (solvent Toluene). For the same molecule, in series [1] (solvent Xylenes), the “gelator ability (state of sample)” value was “G (1)”. Besides, the “Description (nanostructure)” value in series [2] (Toluene, 0.1 mg/mL) is given as “Bundles of fibrils”. Also, the L in series [2] (setting [4]) is listed as more than 1000 nm; in series [2] (Toluene, 0.1 mg/mL, fibrils), more than 1000 nm. In addition, the W in series [2] (setting [4]) was 20-100 nm; in series [2] (Toluene, 0.1 mg/mL, fibrils) it was 5-10 nm.

Take `CCCCCCCCCCCCC(CCCCCCCCCC)C(=O)Nc1cc(C(N)=O)cc(C(N)=O)c1` (stereo not shown) [compound 74, 5-(2-decyltetradecanamido)isophthalamide]: the “gelator ability (state of sample)” value in series [1] (solvent CHCl3) is listed as “P (0.1)”; in series [1] (solvent Cyclohexane) it was “I (0.1)”; in series [1] (solvent Decalin), “I (2.0)”; in series [1] (solvent Dimethoxyethane), “S (0.1)”; in series [1] (solvent Ethylene Glycol) it was “P (2.5)”; in series [1] (setting [3]), “I (0.1)”. For the same molecule, the “gelator ability (state of sample)” value in series [1] (solvent Hexanes) is “I (0.1)”; in series [1] (solvent MeOH), “S (3.0)”; in series [1] (solvent Toluene), “I (0.5)”; in series [1] (solvent Xylenes), “I (2.0)”. For the same molecule, the “Description (nanostructure)” value was “Fibrils” in series [2] (Chloroform, 0.1 mg/mL); “Fibers” in series [2] (Chloroform, 1.0 mg/mL); “Fibers; also recorded: Fibrils” in series [2] (EtOH:H2O, 1.0 mg/mL). Also, the L in series [2] (Chloroform, 0.1 mg/mL, fibrils) was 50-1000 nm; in series [2] (Chloroform, 1.0 mg/mL, fibers), 300-800 nm; in series [2] (EtOH:H2O, 1.0 mg/mL, fibers), more than 5000 nm; in series [2] (EtOH:H2O, 1.0 mg/mL, fibrils), 10-100 nm. For the same molecule, the W is recorded as 5-10 nm in series [2] (Chloroform, 0.1 mg/mL, fibrils); 25-200 nm in series [2] (Chloroform, 1.0 mg/mL, fibers); 50-250 nm in series [2] (EtOH:H2O, 1.0 mg/mL, fibers); 5-10 nm in series [2] (EtOH:H2O, 1.0 mg/mL, fibrils).

Take `CCCC(=O)Nc1cc(C(=O)O)cc(C(=O)O)c1` [compound 45, 5-(butyramido)isophthalic acid]: the “gelator ability (state of sample)” value in series [1] (solvent CHCl3) is reported as “I (0.1)”; in series [1] (solvent Ethylene Glycol), “S (0.1)”; in series [1] (setting [3]), “I (0.1)”; in series [1] (solvent Hexadecane), “I (1.1)”; in series [1] (solvent Hexanes), “I (0.1)”; in series [1] (solvent MeOH) it was “S”. In addition, in series [1] (solvent Toluene), the “gelator ability (state of sample)” value is on record as “I (1.3)”. In addition, the L in series [2] (setting [5]) is 50-1000 nm; in series [2] (Xylenes:THF (1:1), 1.3 mg/mL, sheets) it was 2000-10000 nm. Also, in series [2] (setting [5]), the W is reported as 3-6 nm.

As for `CCCCCCCCCCCCCCCCCCNC(=O)Nc1cc(C(=O)O)cc(C(=O)O)c1` [compound 56], the “gelator ability (state of sample)” value in series [1] (solvent CHCl3) is “I (0.1)”; in series [1] (solvent Decalin) it was “G (2.3)”; in series [1] (solvent Dimethoxyethane) it was “S (1.0)”; in series [1] (solvent Ethylene Glycol), “P (0.5)”; in series [1] (setting [3]) it was “I (0.1)”; in series [1] (solvent Hexadecane), “I (0.1)”. Further, the figures for the “gelator ability (state of sample)” value in series [1] (solvent MeOH), in series [1] (solvent Toluene) and in series [1] (solvent Xylenes) were “G (2.0)”, “I (0.1)” and “G (2.0)”, respectively. In addition, the “Description (nanostructure)” value in series [2] (Chloroform, 0.1 mg/mL) was “Fibrils”. Also, the L in series [2] (Chloroform, 0.1 mg/mL, fibrils) is on record as more than 1000 nm. In series [2] (Chloroform, 0.1 mg/mL, fibrils), the W is on record as 5-10 nm.
